Source: article PMC3111206, “Phase I study of PD 0332991, a cyclin-dependent kinase inhibitor, administered in 3-week cycles (Schedule 2/1)” (British Journal of Cancer, 2011)
“Also recorded” adds a separate entry of the source.

Tests used:
[1] = test system: Rb-positive solid tumours or non-Hodgkin's lymphoma; assay: Tumour response by RECIST v1.0; assay type: in vivo, human
Description: Tumour measurements derived from computed tomography or magnetic resonance imaging scans were obtained at baseline, after every 2 cycles during the study, and at the end of treatment. Tumour responses were evaluated based on Response Evaluation Criteria in Solid Tumors, version 1.0 ([Therasse et al, 2000]).

[2] = Safety assessment: adverse events and haematological toxicity graded by NCI CTCAE v3.0; assay type: in vivo, human; conditions: for Treatment-related Alopecia, All grades / Treatment-related Alopecia, Grade 3 / Treatment-related Anorexia, All grades / Treatment-related Anorexia, Grade 3 / Treatment-related Chills, All grades / Treatment-related Chills, Grade 3 / Treatment-related Constipation, All grades / Treatment-related Constipation, Grade 3 / Treatment-related Cough, All grades / Treatment-related Cough, Grade 3 / Treatment-related Diarrhoea, All grades / Treatment-related Diarrhoea, Grade 3 / Treatment-related Dyspnea, All grades / Treatment-related Dyspnea, Grade 3 / Treatment-related Epistaxis, All grades / Treatment-related Epistaxis, Grade 3 / Treatment-related Fatigue, All grades / Treatment-related Fatigue, Grade 3 / Treatment-related Flatulence, All grades / Treatment-related Flatulence, Grade 3 / Treatment-related Mucosal inflammation, All grades / Treatment-related Mucosal inflammation, Grade 3 / Treatment-related Muscular weakness, All grades / Treatment-related Muscular weakness, Grade 3 / Treatment-related Nausea, All grades / Treatment-related Nausea, Grade 3 / Treatment-related Peripheral oedema, All grades / Treatment-related Peripheral oedema, Grade 3 / Treatment-related Pyrexia, All grades / Treatment-related Pyrexia, Grade 3 / Treatment-related Rash, All grades / Treatment-related Rash, Grade 3 / Treatment-related Vomiting, All grades / Treatment-related Vomiting, Grade 3: all cohorts combined (N=33)
Description: Safety was assessed at baseline, at regular intervals throughout the study, and within 1 week following treatment discontinuation by recording AEs, haematological and biochemical parameters, and physical status (including ECOG performance status). Adverse event severity was graded using the National Cancer Institute Common Terminology Criteria for Adverse Events, version 3.0 ([Trotti et al, 2003]). Triplicate electrocardiograms (ECGs) ∼2 min apart were taken at baseline, 3 h post-dose on days 1, 8 and 15 of cycle 1, and on day 15 of subsequent cycles for up to six cycles.

[3] = test system: absolute neutrophil count (ANC); assay: Pharmacodynamic Emax modelling of change in ANC vs individual AUC; assay type: in vivo; conditions: Homo sapiens, cycle 1, vs individual AUC, 30 patients, s.e. 11.2, 12.6% CV, read-out: Emax for ANC (change from baseline)
Description: To document the course of changes in absolute neutrophil count (ANC) and platelets over time during the first two cycles of treatment, an exploratory analysis of data available from the weekly safety laboratory tests was carried out. Possible relationships between PD 0332991 exposure and changes in (i) ANC and (ii) platelets were assessed further by fitting a simple model (without baseline) to determine the maximum […] (Emax).

[4] = test system: Rb-positive human xenograft models; design: method as in Fry et al, 2004; conditions: several Rb-positive human xenograft models in vivo; ref Fry et al, 2004; cited from earlier work
[5] = 200 mg QD, cycle 1, 20 patients
[6] = maximum toxicity grade, worsened vs baseline, all cohorts and all cycles (N=33)

With CC(=O)c1c(C)c2cnc(Nc3ccc(N4CCNCC4)cn3)nc2n(C2CCCC2)c1=O [PD 0332991] the “Patients with partial response (PR)” value ([1]; 31 evaluable patients, testicular cancer, 200 mg QD, Schedule 2/1) was “one”, the “Duration of stable disease” value ([1]; one patient with angiomyxoma, 200-mg QD cohort) was 19 cycles and the “Duration of stable disease” value ([1]; one patient with liposarcoma, 100-mg QD cohort) was 11 cycles. For the same molecule, the “Duration of stable disease” value ([1]; one patient with liposarcoma, 225-mg QD cohort) was at least 23 cycles, the “Neutropenia, NCICTCAE Grade 0” value [2, 5] was 11 n and the “Neutropenia, NCICTCAE Grade 1” value [2, 5] was 0 n. For the same molecule, the “Neutropenia, NCICTCAE Grade 2” value [2, 5] was 3 n, the “Neutropenia, NCICTCAE Grade 3” value [2, 5] was 6 n and the “Neutropenia, NCICTCAE Grade 4” value [2, 5] was 0 n. For the same molecule, the “Patients with treatment interrupted following treatment-related AEs” value ([2]; 200 mg QD, during cycle 1) was “eight”, the “Neutropenia, NCICTCAE Grade 0” value ([2]; 225 mg QD, cycle 1, 6 patients) was 3 n and the “Neutropenia, NCICTCAE Grade 1” value ([2]; 225 mg QD, cycle 1, 6 patients) was 0 n. The “Neutropenia, NCICTCAE Grade 2” value ([2]; 225 mg QD, cycle 1, 6 patients) was 0 n, the “Neutropenia, NCICTCAE Grade 3” value ([2]; 225 mg QD, cycle 1, 6 patients) was 2 n and the “Neutropenia, NCICTCAE Grade 4” value ([2]; 225 mg QD, cycle 1, 6 patients) was 1 n. The “Treatment-related Alopecia, All grades” value ([2]; After cycle 1) was 2 (6) n (%), the “Treatment-related Alopecia, Grade 3” value ([2]; After cycle 1) was 0 n (%) and the “Treatment-related Anorexia, All grades” value ([2]; After cycle 1) was 3 (9) n (%). The “Treatment-related Anorexia, Grade 3” value ([2]; After cycle 1) was 0 n (%), the “Treatment-related Chills, All grades” value ([2]; After cycle 1) was 2 (6) n (%) and the “Treatment-related Chills, Grade 3” value ([2]; After cycle 1) was 0 n (%). For the same molecule, the “Treatment-related Constipation, All grades” value ([2]; After cycle 1) was 3 (9) n (%), the “Treatment-related Constipation, Grade 3” value ([2]; After cycle 1) was 0 n (%) and the “Treatment-related Cough, All grades” value ([2]; After cycle 1) was 2 (6) n (%). For the same molecule, the “Treatment-related Cough, Grade 3” value ([2]; After cycle 1) was 0 n (%), the “Treatment-related Diarrhoea, All grades” value ([2]; After cycle 1) was 10 (30) n (%) and the “Treatment-related Diarrhoea, Grade 3” value ([2]; After cycle 1) was 0 n (%). The “Treatment-related Dyspnea, All grades” value ([2]; After cycle 1) was 1 (3) n (%), the “Treatment-related Dyspnea, Grade 3” value ([2]; After cycle 1) was 0 n (%) and the “Treatment-related Epistaxis, All grades” value ([2]; After cycle 1) was 4 (12) n (%). The “Treatment-related Epistaxis, Grade 3” value ([2]; After cycle 1) was 0 n (%), the “Treatment-related Fatigue, All grades” value ([2]; After cycle 1) was 10 (30) n (%) and the “Treatment-related Fatigue, Grade 3” value ([2]; After cycle 1) was 1 (3) n (%). For the same molecule, the “Treatment-related Flatulence, All grades” value ([2]; After cycle 1) was 3 (9) n (%), the “Treatment-related Flatulence, Grade 3” value ([2]; After cycle 1) was 0 n (%) and the “Treatment-related Mucosal inflammation, All grades” value ([2]; After cycle 1) was 3 (9) n (%). For the same molecule, the “Treatment-related Mucosal inflammation, Grade 3” value ([2]; After cycle 1) was 0 n (%), the “Treatment-related Muscular weakness, All grades” value ([2]; After cycle 1) was 2 (6) n (%) and the “Treatment-related Muscular weakness, Grade 3” value ([2]; After cycle 1) was 0 n (%). The “Treatment-related Nausea, All grades” value ([2]; After cycle 1) was 5 (15) n (%), the “Treatment-related Nausea, Grade 3” value ([2]; After cycle 1) was 1 (3) n (%) and the “Treatment-related Peripheral oedema, All grades” value ([2]; After cycle 1) was 2 (6) n (%). For the same molecule, the “Treatment-related Peripheral oedema, Grade 3” value ([2]; After cycle 1) was 0 n (%), the “Treatment-related Pyrexia, All grades” value ([2]; After cycle 1) was 2 (6) n (%) and the “Treatment-related Pyrexia, Grade 3” value ([2]; After cycle 1) was 0 n (%). The “Treatment-related Rash, All grades” value ([2]; After cycle 1) was 2 (6) n (%), the “Treatment-related Rash, Grade 3” value ([2]; After cycle 1) was 0 n (%) and the “Treatment-related Vomiting, All grades” value ([2]; After cycle 1) was 2 (6) n (%). The “Treatment-related Vomiting, Grade 3” value ([2]; After cycle 1) was 1 (3) n (%), the “Treatment-related Alopecia, All grades” value ([2]; Cycle 1) was 0 n (%) and the “Treatment-related Alopecia, Grade 3” value ([2]; Cycle 1) was 0 n (%). For the same molecule, the “Treatment-related Anorexia, All grades” value ([2]; Cycle 1) was 1 (3) n (%), the “Treatment-related Anorexia, Grade 3” value ([2]; Cycle 1) was 0 n (%) and the “Treatment-related Chills, All grades” value ([2]; Cycle 1) was 0 n (%). The “Treatment-related Chills, Grade 3” value ([2]; Cycle 1) was 0 n (%), the “Treatment-related Constipation, All grades” value ([2]; Cycle 1) was 4 (12) n (%) and the “Treatment-related Constipation, Grade 3” value ([2]; Cycle 1) was 0 n (%). For the same molecule, the “Treatment-related Cough, All grades” value ([2]; Cycle 1) was 0 n (%), the “Treatment-related Cough, Grade 3” value ([2]; Cycle 1) was 0 n (%) and the “Treatment-related Diarrhoea, All grades” value ([2]; Cycle 1) was 6 (18) n (%). For the same molecule, the “Treatment-related Diarrhoea, Grade 3” value ([2]; Cycle 1) was 0 n (%), the “Treatment-related Dyspnea, All grades” value ([2]; Cycle 1) was 3 (9) n (%) and the “Treatment-related Dyspnea, Grade 3” value ([2]; Cycle 1) was 0 n (%). For the same molecule, the “Treatment-related Epistaxis, All grades” value ([2]; Cycle 1) was 0 n (%), the “Treatment-related Epistaxis, Grade 3” value ([2]; Cycle 1) was 0 n (%) and the “Treatment-related Fatigue, All grades” value ([2]; Cycle 1) was 11 (33) n (%). The “Treatment-related Fatigue, Grade 3” value ([2]; Cycle 1) was 0 n (%), the “Treatment-related Flatulence, All grades” value ([2]; Cycle 1) was 0 n (%) and the “Treatment-related Flatulence, Grade 3” value ([2]; Cycle 1) was 0 n (%). The “Treatment-related Mucosal inflammation, All grades” value ([2]; Cycle 1) was 0 n (%), the “Treatment-related Mucosal inflammation, Grade 3” value ([2]; Cycle 1) was 0 n (%) and the “Treatment-related Muscular weakness, All grades” value ([2]; Cycle 1) was 0 n (%). The “Treatment-related Muscular weakness, Grade 3” value ([2]; Cycle 1) was 0 n (%), the “Treatment-related Nausea, All grades” value ([2]; Cycle 1) was 10 (30) n (%) and the “Treatment-related Nausea, Grade 3” value ([2]; Cycle 1) was 0 n (%). The “Treatment-related Peripheral oedema, All grades” value ([2]; Cycle 1) was 3 (9) n (%), the “Treatment-related Peripheral oedema, Grade 3” value ([2]; Cycle 1) was 0 n (%) and the “Treatment-related Pyrexia, All grades” value ([2]; Cycle 1) was 1 (3) n (%). For the same molecule, the “Treatment-related Pyrexia, Grade 3” value ([2]; Cycle 1) was 0 n (%), the “Treatment-related Rash, All grades” value ([2]; Cycle 1) was 4 (12) n (%) and the “Treatment-related Rash, Grade 3” value ([2]; Cycle 1) was 0 n (%). The “Treatment-related Vomiting, All grades” value ([2]; Cycle 1) was 2 (6) n (%), the “Treatment-related Vomiting, Grade 3” value ([2]; Cycle 1) was 0 n (%) and the “Patients with treatment interrupted following treatment-related AEs” value ([2]; after cycle 1 (two 200-mg QD, one 225-mg QD)) was “three”. The Diarrhoea incidence ([2]; after cycle 1, all cohorts) was 30%, the Epistaxis incidence ([2]; after cycle 1, all cohorts) was 12% and the Fatigue incidence ([2]; after cycle 1, all cohorts) was 30%. For the same molecule, the Nausea incidence ([2]; after cycle 1, all cohorts) was 15%, the “Grade 1/2 leukopenia and thrombocytopenia” value ([2]; all cohorts) was 58–67 % of patients and the “Grade 3/4 leukopenia and neutropenia” value ([2]; all cohorts) was 20–25 % of patients. The “Patients requiring dose reductions” value ([2]; all cohorts) was “Five”, the “Patients who discontinued treatment permanently because of treatment-related AEs” value ([2]; all cohorts) was “No patient” and the “Treatment-related grade 4 non-haematological AEs” value ([2]; all cohorts) was “no treatment-related grade 4 non-haematological AEs; also recorded: no treatment-related grade 4 toxicity”. The “Grade 3 or 4 leukopenia” value ([2]; all cohorts and cycles) was 21%, the “Grade 3 or 4 lymphopenia” value ([2]; all cohorts and cycles) was 36% and the “Grade 3 or 4 neutropenia” value ([2]; all cohorts and cycles) was 24%. For the same molecule, the “Grade 3 or 4 thrombocytopenia” value ([2]; all cohorts and cycles) was 9%, the “Grade 3 or 4 anaemia” value ([2]; all cohorts and cycles, a single patient) was 3% and the “Number of grade 3 non-haematological AEs” value ([2]; all cohorts, all after the first cycle (fatigue, hyperglycaemia, hyponatremia, nausea, vomiting; n=1 each)) was “Five”. For the same molecule, the Constipation incidence ([2]; during cycle 1, all cohorts) was 12%, the Diarrhoea incidence ([2]; during cycle 1, all cohorts) was 18% and the Fatigue incidence ([2]; during cycle 1, all cohorts) was 33%. For the same molecule, the Nausea incidence ([2]; during cycle 1, all cohorts) was 30%, the Rash incidence ([2]; during cycle 1, all cohorts) was 12% and the “Anaemia, Grade 1/2” value [2, 6] was 21 (64) n (%). The “Anaemia, Grade 3/4” value [2, 6] was 1 (3) n (%), the “Leukopenia, Grade 1/2” value [2, 6] was 22 (67) n (%) and the “Leukopenia, Grade 3/4” value [2, 6] was 7 (21) n (%). For the same molecule, the “Lymphopenia, Grade 1/2” value [2, 6] was 8 (24) n (%), the “Lymphopenia, Grade 3/4” value [2, 6] was 12 (36) n (%) and the “Neutropenia, Grade 1/2” value [2, 6] was 14 (42) n (%). The “Neutropenia, Grade 3/4” value [2, 6] was 8 (24) n (%), the “Thrombocytopenia, Grade 1/2” value [2, 6] was 19 (58) n (%) and the “Thrombocytopenia, Grade 3/4” value [2, 6] was 3 (9) n (%). The Emax [3] was 88.6% and the “Effect on tumour growth” value [4] was “significantly reduces tumour growth and leads to tumour regression”.
